ChEMBL document CHEMBL5346971, “Discovery of the First Irreversible HDAC6 Isoform Selective Inhibitor with Potent Anti-Multiple Myeloma Activity” (J Med Chem, 2023)
Activity calls are given as the source filed them. The rule behind the calls is not given here.

Legend:
[1] = Intrinsic clearance in rat liver microsomes in presence of NADPH by LC-MS/MS analysis; format: ADME, Microsome; conditions: read-out: CLH
Histone deacetylase 4 = Histone deacetylase 4 (Homo sapiens, UniProt P56524); assay: Inhibition of N-terminal GST-tagged/C-terminal His-tagged human HDAC4 (627 to 1084 residues) expressed in baculovirus-infected Sf9 cells using Boc-Lys(trifluoroacety1)-AMC as substrate preincubated with enzyme for 1 hr followed by substrate addition and measured after 30 mins by fluorescence based analysis
Sequence of Histone deacetylase 4 (P56524 whole entry, the tested form may be a part): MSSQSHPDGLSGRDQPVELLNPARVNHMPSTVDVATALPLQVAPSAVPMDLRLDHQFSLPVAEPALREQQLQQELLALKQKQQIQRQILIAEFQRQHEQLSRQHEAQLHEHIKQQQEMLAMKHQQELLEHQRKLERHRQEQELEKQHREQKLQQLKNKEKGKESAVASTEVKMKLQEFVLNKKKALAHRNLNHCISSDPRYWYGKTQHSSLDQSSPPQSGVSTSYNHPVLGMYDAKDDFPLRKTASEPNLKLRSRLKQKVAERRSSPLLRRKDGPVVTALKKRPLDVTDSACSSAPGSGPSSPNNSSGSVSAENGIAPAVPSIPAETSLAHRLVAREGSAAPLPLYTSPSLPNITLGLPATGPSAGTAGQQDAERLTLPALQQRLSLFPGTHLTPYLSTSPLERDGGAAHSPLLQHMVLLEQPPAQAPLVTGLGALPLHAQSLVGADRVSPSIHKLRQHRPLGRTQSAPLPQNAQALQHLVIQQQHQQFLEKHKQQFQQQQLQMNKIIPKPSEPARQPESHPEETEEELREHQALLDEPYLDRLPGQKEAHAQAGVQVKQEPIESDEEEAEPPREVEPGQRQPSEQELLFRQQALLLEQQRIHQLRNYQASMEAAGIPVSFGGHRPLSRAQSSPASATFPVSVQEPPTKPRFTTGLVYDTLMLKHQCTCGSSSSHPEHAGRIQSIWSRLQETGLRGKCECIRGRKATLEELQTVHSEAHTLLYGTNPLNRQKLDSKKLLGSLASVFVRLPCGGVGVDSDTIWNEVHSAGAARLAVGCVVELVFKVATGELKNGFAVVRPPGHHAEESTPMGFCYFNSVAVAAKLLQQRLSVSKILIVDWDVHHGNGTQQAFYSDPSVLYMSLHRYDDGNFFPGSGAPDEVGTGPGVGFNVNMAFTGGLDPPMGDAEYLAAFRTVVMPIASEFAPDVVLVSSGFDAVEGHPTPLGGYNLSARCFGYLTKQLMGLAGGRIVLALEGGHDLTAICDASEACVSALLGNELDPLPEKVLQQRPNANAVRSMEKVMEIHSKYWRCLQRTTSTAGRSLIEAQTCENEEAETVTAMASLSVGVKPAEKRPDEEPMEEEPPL

[2] = Intrinsic clearance in human liver microsomes in presence of NADPH by LC-MS/MS analysis; format: ADME, Microsome; conditions: read-out: CLH
RPMI-8226 [3] = assay: Induction of apoptosis in human RPMI-8226 cells assessed as proportion of viable cells at 0.5 uM incubated for 24 hrs by AnnexinV-FITC/PI staining based flow cytometry (reference value: 84.71%); format: functional, cell-based
[4] = target: T1, Class 1 histone deacetylase (Homo sapiens) (UniProt Q13547+O15379+Q92769+Q9BY41); assay: Irreversible inhibition of class 1 HDAC in human A549 cells assessed as acetyl histone H4 level at 0.4 uM incubated for 5 hrs followed by drug wash-out and measured immediately after drug wash-out by western blot analysis relative to control; format: cell-based
T1 sequence (O15379 whole entry, looked up, one chain of several): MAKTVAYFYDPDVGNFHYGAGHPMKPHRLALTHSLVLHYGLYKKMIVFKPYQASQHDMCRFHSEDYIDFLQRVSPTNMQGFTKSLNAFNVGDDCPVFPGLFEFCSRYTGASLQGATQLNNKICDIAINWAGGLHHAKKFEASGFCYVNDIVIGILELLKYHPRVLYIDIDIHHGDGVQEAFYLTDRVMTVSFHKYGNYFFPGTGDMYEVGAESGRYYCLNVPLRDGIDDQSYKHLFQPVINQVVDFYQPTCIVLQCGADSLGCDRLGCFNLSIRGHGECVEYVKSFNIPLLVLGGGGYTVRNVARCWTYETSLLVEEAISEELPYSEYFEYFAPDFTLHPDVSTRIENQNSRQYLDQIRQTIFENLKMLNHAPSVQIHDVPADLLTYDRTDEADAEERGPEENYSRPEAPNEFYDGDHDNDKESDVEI
T1 sequence (Q13547 whole entry, looked up, one chain of several): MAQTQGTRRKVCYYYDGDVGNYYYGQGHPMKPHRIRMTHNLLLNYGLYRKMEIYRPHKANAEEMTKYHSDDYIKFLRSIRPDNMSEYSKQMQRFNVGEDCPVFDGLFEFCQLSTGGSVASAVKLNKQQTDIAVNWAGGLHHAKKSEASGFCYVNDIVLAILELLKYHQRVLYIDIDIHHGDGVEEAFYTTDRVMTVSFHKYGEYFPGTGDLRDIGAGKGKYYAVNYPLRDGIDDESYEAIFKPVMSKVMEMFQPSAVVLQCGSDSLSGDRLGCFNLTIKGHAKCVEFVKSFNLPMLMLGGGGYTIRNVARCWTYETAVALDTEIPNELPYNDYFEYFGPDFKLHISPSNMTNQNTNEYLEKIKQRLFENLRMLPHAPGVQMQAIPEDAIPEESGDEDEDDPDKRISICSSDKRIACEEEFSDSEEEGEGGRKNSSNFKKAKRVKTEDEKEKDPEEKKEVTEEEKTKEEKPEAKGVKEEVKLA
T1 sequence (Q92769 whole entry, looked up, one chain of several): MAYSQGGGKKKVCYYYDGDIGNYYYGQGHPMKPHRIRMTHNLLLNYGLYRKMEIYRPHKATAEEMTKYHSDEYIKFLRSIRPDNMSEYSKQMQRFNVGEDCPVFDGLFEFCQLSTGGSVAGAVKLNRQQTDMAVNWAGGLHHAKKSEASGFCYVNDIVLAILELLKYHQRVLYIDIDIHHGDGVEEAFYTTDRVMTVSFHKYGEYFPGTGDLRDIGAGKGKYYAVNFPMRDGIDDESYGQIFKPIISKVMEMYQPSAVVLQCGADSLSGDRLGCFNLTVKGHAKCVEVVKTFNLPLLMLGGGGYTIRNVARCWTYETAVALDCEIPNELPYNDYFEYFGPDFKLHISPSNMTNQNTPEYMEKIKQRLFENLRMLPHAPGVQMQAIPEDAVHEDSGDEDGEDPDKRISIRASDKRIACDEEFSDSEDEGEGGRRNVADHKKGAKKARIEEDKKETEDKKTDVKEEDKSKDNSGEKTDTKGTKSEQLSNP

[5] = Half-life in human liver microsomes in presence of NADPH by LC-MS/MS analysis; format: ADME, Microsome
RPMI-8226 [6] = assay: Induction of apoptosis in human RPMI-8226 cells assessed as proportion of early apoptotic cells at 0.5 uM incubated for 24 hrs by AnnexinV-FITC/PI staining based flow cytometry (reference value: 10.63%); format: functional, cell-based
[7] = target: T1, Class 1 histone deacetylase (Homo sapiens); assay: Irreversible inhibition of class 1 HDAC in human A549 cells assessed as acetyl histone H4 level at 0.4 uM incubated for 5 hrs followed by drug wash-out for 6 hrs by western blot analysis relative to control; format: cell-based
RPMI-8226 [8] = assay: Induction of cell cycle arrest in human RPMI-8226 cells assessed as proportion of cells at G1 phase at 0.1 uM incubated for 24 hrs by PI staining based flow cytometry (reference value: 33.5%); format: functional
U-266 = assay: Antiproliferative activity against human U-266 cells assessed as inhibition of cell proliferation incubated for 48 hrs by CCK8 assay; format: functional, cell-based; conditions: U-266, 48 h
[9] = target: Histone deacetylase 3/Nuclear receptor corepressor 2 (HDAC3/NCoR2) (Homo sapiens, UniProt O15379); assay: Inhibition of C-terminal His-tagged human HDAC3 (1 to 428 residues)/N-terminal GST-tagged human NCOR2 (395 to 489 residues) expressed in baculovirus-infected Sf9 cells using Boc-Lys(acetyI)-AMC as substrate preincubated with enzyme for 1 hr followed by substrate addition and measured after 30 mins by fluorescence based analysis
Sequence of Histone deacetylase 3/Nuclear receptor corepressor 2 (HDAC3/NCoR2) (O15379 whole entry, the tested form may be a part): as the sequence (O15379 whole entry, looked up, one chain of several) above
Sequence of Histone deacetylase 3/Nuclear receptor corepressor 2 (HDAC3/NCoR2) (Q9Y618 whole entry, further chain, the tested form may be a part): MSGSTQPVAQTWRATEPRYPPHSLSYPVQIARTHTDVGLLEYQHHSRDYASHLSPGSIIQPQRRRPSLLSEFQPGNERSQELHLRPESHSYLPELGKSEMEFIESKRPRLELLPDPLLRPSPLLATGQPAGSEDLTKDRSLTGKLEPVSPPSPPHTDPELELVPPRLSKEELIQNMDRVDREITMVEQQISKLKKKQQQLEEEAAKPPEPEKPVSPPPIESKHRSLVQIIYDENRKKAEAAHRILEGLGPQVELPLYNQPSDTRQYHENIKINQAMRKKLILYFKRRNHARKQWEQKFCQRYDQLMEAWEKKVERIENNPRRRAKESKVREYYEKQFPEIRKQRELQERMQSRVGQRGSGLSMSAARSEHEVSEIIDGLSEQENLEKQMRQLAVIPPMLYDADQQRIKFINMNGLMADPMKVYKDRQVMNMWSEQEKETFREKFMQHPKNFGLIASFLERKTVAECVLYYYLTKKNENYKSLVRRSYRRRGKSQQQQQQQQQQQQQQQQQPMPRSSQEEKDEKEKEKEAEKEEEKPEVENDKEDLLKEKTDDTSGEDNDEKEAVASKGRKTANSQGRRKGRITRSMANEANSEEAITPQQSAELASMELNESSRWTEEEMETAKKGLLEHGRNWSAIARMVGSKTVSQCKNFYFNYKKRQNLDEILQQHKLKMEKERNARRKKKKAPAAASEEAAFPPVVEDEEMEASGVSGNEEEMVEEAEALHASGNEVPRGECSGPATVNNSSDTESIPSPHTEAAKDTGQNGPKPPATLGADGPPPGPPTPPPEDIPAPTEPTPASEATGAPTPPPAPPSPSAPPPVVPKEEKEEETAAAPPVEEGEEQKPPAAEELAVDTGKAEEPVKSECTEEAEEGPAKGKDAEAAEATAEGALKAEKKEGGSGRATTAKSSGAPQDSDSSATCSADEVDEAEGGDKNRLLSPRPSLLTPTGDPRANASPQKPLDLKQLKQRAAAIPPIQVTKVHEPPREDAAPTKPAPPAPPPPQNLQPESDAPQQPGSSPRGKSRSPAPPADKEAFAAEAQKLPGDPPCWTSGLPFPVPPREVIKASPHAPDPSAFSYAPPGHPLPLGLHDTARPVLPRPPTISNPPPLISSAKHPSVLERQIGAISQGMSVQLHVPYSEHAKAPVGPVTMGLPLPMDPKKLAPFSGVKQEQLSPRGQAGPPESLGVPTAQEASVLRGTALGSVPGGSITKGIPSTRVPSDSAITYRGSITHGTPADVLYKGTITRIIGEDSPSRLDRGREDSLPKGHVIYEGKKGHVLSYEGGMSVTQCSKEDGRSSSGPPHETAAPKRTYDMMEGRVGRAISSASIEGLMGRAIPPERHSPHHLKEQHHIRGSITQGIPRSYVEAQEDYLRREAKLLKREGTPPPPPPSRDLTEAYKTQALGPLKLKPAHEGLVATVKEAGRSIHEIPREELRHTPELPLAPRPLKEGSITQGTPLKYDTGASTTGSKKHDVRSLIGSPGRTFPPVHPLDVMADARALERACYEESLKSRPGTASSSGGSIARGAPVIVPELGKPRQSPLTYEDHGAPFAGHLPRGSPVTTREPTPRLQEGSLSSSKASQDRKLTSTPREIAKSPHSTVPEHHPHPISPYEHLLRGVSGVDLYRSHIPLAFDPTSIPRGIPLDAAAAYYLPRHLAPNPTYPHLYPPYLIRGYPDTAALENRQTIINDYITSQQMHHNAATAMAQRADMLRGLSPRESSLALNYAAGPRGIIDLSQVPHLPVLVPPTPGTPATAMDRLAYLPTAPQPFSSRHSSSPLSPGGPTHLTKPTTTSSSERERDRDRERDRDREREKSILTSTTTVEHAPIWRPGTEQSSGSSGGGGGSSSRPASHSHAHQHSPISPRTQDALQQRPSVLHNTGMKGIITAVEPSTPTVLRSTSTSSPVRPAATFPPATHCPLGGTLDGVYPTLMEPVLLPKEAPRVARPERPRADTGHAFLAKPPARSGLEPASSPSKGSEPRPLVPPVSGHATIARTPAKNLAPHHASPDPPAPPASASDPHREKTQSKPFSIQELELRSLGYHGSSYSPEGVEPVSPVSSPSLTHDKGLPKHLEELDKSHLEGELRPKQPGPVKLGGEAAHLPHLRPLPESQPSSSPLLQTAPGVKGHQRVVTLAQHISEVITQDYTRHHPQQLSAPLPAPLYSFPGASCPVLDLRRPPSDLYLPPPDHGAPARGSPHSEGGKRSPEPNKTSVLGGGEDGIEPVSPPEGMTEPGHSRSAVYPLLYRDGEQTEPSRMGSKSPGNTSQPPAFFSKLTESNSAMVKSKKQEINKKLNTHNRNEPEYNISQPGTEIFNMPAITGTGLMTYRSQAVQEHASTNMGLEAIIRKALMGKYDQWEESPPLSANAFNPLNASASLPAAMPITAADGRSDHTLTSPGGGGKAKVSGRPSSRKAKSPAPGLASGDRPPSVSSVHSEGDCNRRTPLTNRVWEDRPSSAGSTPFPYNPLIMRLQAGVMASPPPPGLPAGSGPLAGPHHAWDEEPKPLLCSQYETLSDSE

RPMI-8226 [10] = assay: Induction of apoptosis in human RPMI-8226 cells assessed as proportion of late apoptotic cells at 0.1 uM incubated for 24 hrs by AnnexinV-FITC/PI staining based flow cytometry (reference value: 4.18%); format: functional, cell-based
[11] = Toxicity in NCG mouse xenografted with human RPMI-8226 cells assessed as body weight loss at 10 ug administered intratumorally every 2 days; conditions: in vivo, other, 48 h, route it(Intratumoral), dose 10 µg
[12] = target: T1, Class 1 histone deacetylase (Homo sapiens); assay: Irreversible inhibition of class 1 HDAC in human A549 cells assessed as acetyl histone H3 level at 0.4 uM incubated for 5 hrs followed by drug wash-out for 1 hr by western blot analysis relative to control; format: cell-based
MM1.S = assay: Antiproliferative activity against human MM1.S cells assessed as inhibition of cell proliferation incubated for 48 hrs by CCK8 assay; format: functional, cell-based
Histone deacetylase 8 = target: T2, Histone deacetylase 8 (Homo sapiens, UniProt Q9BY41); assay: Inhibition of C-terminal His-tagged human full length recombinant HDAC8 (1 to 377 residues) expressed in Sf9 cells using Boc-Lys(trifluoroacety1)-AMC as substrate preincubated with enzyme for 1 hr followed by substrate addition and measured after 30 mins by fluorescence based analysis
T2 sequence (Q9BY41 whole entry): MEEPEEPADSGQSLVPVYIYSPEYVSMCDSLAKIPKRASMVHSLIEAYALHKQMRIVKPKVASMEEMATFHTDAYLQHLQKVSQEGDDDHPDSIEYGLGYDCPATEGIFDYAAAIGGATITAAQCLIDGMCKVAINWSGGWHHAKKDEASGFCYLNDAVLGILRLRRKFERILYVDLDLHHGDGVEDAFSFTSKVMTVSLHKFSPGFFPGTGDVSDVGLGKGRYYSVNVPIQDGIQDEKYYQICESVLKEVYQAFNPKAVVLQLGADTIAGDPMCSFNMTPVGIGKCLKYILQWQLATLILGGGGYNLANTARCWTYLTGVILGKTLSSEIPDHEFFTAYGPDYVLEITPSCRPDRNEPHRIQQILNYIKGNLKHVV

Histone deacetylase 2 = Histone deacetylase 2 (Homo sapiens, UniProt Q92769); assay: Inhibition of C-terminal FLAG-tagged human full length recombinant HDAC2 (1 to 488 residues) expressed in Sf9 cells using Boc-Lys(acetyI)-AMC as substrate preincubated with enzyme for 1 hr followed by substrate addition and measured after 30 mins by fluorescence based analysis
Sequence of Histone deacetylase 2 (Q92769 whole entry, the tested form may be a part): as the sequence (Q92769 whole entry, looked up, one chain of several) above

[13] = Metabolic stability of the compound in human liver microsomes assessed as parent compound remaining measured after 60 mins in presence of NADPH by LC-MS/MS analysis; format: ADME, Microsome; conditions: read-out: Stability
RPMI-8226 [14] = assay: Induction of apoptosis in human RPMI-8226 cells assessed as proportion of viable cells at 0.1 uM incubated for 24 hrs by AnnexinV-FITC/PI staining based flow cytometry (reference value: 84.71%); format: functional, cell-based

For `O=C(NO)c1ccc(COc2no[n+]([O-])c2S(=O)(=O)c2ccccc2)cc1`, the CLint scaled [1] was 270 mL/min/kg, the IC50 (Histone deacetylase 4) was greater than 40000 nM and the CLint scaled [2] was 230 mL/min/kg. For the same molecule, the Activity (RPMI-8226 [3]) was “Active”, the fold change (FC) [4] was 0.7 and the half-life [5] was 5.4 min. The Activity (RPMI-8226 [6]) was “Active”, the fold change (FC) [7] was 1 and the Activity (RPMI-8226 [8]) was 28.8%. The IC50 (U-266) was 700 nM, the IC50 [9] was 8200 nM and the Activity (RPMI-8226 [10]) was “Active”. The Activity [11] was “Non-Toxic”, the fold change (FC) [12] was 1.2 and the IC50 (MM1.S) was 420 nM. The IC50 (Histone deacetylase 8) was 2100 nM, the IC50 (Histone deacetylase 2) was 1500 nM and the remaining at 1 h [13] was less than 0.33%. The Activity (RPMI-8226 [14]) was “Active”.
